The text below walks through data of US20250152524A1, “TOPICAL COMPOSITIONS AND METHODS” (VasoDynamics Limited, priority 2022, published 2025).

The subject of one series is radiation dermatitis. As to conditions: cited from earlier work; for relative potencies of the topically applied vasoconstrictors (suppression of radiation dermatitis): 75 μl in ethanol:water (70:30) on 4.5 cm^2 shaved skin 12 min before 17.2 Gy; for potency in comparison to epinephrine: Fahl, 2016.
The test system of the next series is cancerous tissues. The settings on record: topical application, three xenograft tumour mice models; cited from earlier work.
Series [1] relates to mucositis, dermatitis and alopecia. As to conditions: topically applied, animal models; cited from earlier work.
The conditions of series [2]: for μmols retained in oropharyngeal cavity (A × 0.24): 12.5 ml administered; for Optimum L-Epinephrine Topical Dose (μmols/cm^2): 12.5 ml, surface area 188 cm^2. As to the method: In these experiments, three human volunteer subjects were provided vials containing solution of 5 mM phenylephrine HCl dissolved in our orotopical delivery vehicle, and they were instructed to: • i) deliver the vial contents into their mouths; • ii) ii) swish the liquid in their mouths, pausing to gargle twice for five seconds; and • iii) at the specified time spit out the liquid into a glass vial.
The volume administered and the volume spit out by each test subject were recorded, and HPLC analysis of the phenylephrine concentration in the administered solution and the solutions spit out by each of the three volunteer subjects were determined.

A further series relates to oral mucosa tissue. Nature of the series: Lip blanch response after topical application of 1.0 ml to lips (Example 1). Type of series: in vivo, human.
The nature of series [3]: HCl titration of L-epinephrine free base in orotopical delivery vehicle: pH and appearance. Type of series: physicochemical. As to the method:
18 hours later, the clear solution had developed a pink colour (consistent with adrenochrome formation, an oxidative epinephrine metabolite) and flocculant, re-precipitated material had appeared on the surface of the liquid.
An abrupt drop in pH occurred at pH 6.10 in which the turbidity also immediately clarified. Table 2 provides a summary of the pH values from this titration, and indicates the experimentally determined moles of HCl that were required to achieve pH 2.50 in this specific formulation

For a further series, the system named is submucosal blood vessels. As to the method: 2. While stirring, 2-5 N HCl was added to achieve a pH of 2.5.
3. […] The subject swished the 12.5 ml of formulation, gargling twice for 5 seconds each, for 2.0 minutes, and then spit out the formulation.

The nature of series [4]: Stability of pharmaceutical composition with around 20% wt/vol oxygen (Example 9). Type of series: physicochemical. The settings on record: 5 mM (0.92 mg/ml). The procedure:
The stability study samples were stored at the stability incubator chambers with various temperature and humidity conditions. At indicated time points, pulled samples were assessed on items such as Appearance, Identification, Colour of solution, Clarity of solutions, pH, Assay, Related Substances, Ethanol and Sodium Metabisulfite content for L-epinephrine solution.

A further series has as its system squamous human skin. As to conditions: 3 mg/ml.
The conditions of series [5]: Nutman et al., Crit Care Med 1994; cited from earlier work.
Setting [6] is: 5 mM × 12.5 ml administered, one line per subject, HCl.

Where “and” joins values, the source holds several entries; their conditions need not be identical. Identical values can stand only once. Counter-ions that a name gives are not always drawn. Like-named read-outs stand apart in the source and are kept apart here.

Regarding `NC[C@H](O)c1ccc(O)c(O)c1` [norepinephrine], in the series with radiation dermatitis, the “relative potencies of the topically applied vasoconstrictors (suppression of radiation dermatitis)” value (“relative potencies” below) is reported as 0.5 and the “potency in comparison to epinephrine” value is on record as “half”. For the same compound, the “interference to the curative radiation effect to cancerous tissues” value (from here on “interference”) in the series on cancerous tissues is listed as “no interference”. For the same compound, the “prevention of mucositis, dermatitis and alopecia induced by radiation” value (“prevention of mucositis” for short) in series [1] was “successful outcome”.
For `CNC[C@H](O)c1cccc(O)c1` [PhE-HCl, phenylephrine HCl], the “Spit Out PhE-HCl mg/ml (hplc) × ml B” value in series [2] (5 mM × 12.5 ml (12.8 mg) administered, one line per subject, mean in brackets, HCl) was “(10.59) mg/ml × ml and 9.23, 9.62 (9.42) mg/ml × ml and 8.91, 9.51 (9.21) mg/ml × ml”. For the same compound, in [2] (setting [6]), the “% of Administered Dose Spit Out B/A × 100” value was 74% and 72% and 83%; the “% of Orotopical PhE-HCl Dose Delivered to Oral Surfaces” value was 26% and 28% and 17%; the “mg PhE-HCl Actually Delivered” value was 3.3 mg and 3.6 mg and 2.2 mg.
Consider `CNC[C@H](O)c1ccc(O)c(O)c1` [epinephrine], for which the “relative potencies” value with radiation dermatitis is 1. In the series on cancerous tissues, the “interference” value was “no interference”. For the same compound, in [1], the “prevention of mucositis” value is recorded as “successful outcome”.
Regarding `CNC[C@H](O)c1cccc(O)c1` [phenylephrine], in the series with radiation dermatitis, the “relative potencies” value was 0.2 and the “potency in comparison to epinephrine” value is reported as “one fifth”. The “interference” value in the series on cancerous tissues is given as “no interference”. For the same compound, the “prevention of mucositis” value in series [1] is “successful outcome”.
Regarding `CNC[C@H](O)c1ccc(O)c(O)c1` [L-epinephrine], the “time to see a robust lip blanch response” value with oral mucosa tissue (solution at pH 2.50, 20 mM, 1.0 ml on lips) came out at 8 min. Also, the “time to see a discernible lip blanch response” value in the series with oral mucosa tissue (solution at pH 4.95, 1.0 ml on lips) is about 20 min. Also, the appearance of solution entry in series [3] (at pH 2.50) is “clear and colourless”; in [3] (at pH 4.95), “clear and colourless”; in series [3] (pH 2.50 solution, 48 hrs later), “clear and colourless”; in [3] (pH 4.95 solution, 18 hours later), “pink colour”. The “share of L-epinephrine dose from the orotopical solution delivered to oral mucosa” value in series [2] (1.8 mg/ml or 3.6 mg/ml administered to mouths of adult humans) is on record as 20-30%. Besides, the “μmols retained in oropharyngeal cavity (A × 0.24)” value stood at 30 μmols in series [2] (10 mM (1.8 mg/ml)) and 60 μmols in [2] (20 mM (3.6 mg/ml)). Also, the “Optimum L-Epinephrine Topical Dose (μmols/cm^2)” value in series [2] (10 mM (1.8 mg/ml)) worked out at 0.160 μmols/cm^2; in series [2] (20 mM (3.6 mg/ml)) it was 0.320 μmols/cm^2. Further, the “lip blanching (photos)” value with submucosal blood vessels (5.5 mg/ml solution on the lower lip) was “blanching”. The lip blanch response entry in the series with submucosal blood vessels (5 minutes after initiation of gargling, 12.5 ml, pH 2.5) was “clear, robust blanch response”. Also, the “time within which robust mucosal blanch was induced” value in the series on submucosal blood vessels (four healthy volunteers, 0.9-5.5 mg/ml) lay within 5 to 60 min. In addition, the single impurity in [4] (40° C. for 1 month) was about 1.7%; in series [4] (60° C. stress condition), “more than 8%”. The total impurities in [4] (40° C. for 1 month) is listed as 3.8%; in [4] (60° C. stress condition), “more than 17%”. For the same compound, the “concentration of antioxidant sodium metabisulfite” value in series [4] (60° C. and 40° C.) was “decreasing trend”. Also, in series [4] (60° C. stress condition), the “decrease of concentration of L-epinephrine” value was “about 18%”. The sample colour entry in series [4] (60° C. stress condition) is recorded as “light brown”. For the same compound, the “duration of blanching after dermal topical application” value in the series on squamous human skin was “about 40 minutes”. Moreover, the “2N HCl added to adjust to pH 2.33 (ml/l)” value is, setting by setting: (L-epi conc 0.92 mg/ml) 5.36 ml/l; (L-epi conc 5.50 mg/ml) 11.88 ml/l. Further, the “pH without addition of L-epi” value reads like this: (L-epi conc 0.92 mg/ml) 4.32; (L-epi conc 5.50 mg/ml) 7.10. The “potency versus racemic +/−epinephrine HCl” value in series [5] is on record as “twice as potent”.
